Laboratory results reported in the NIST ThermoML archive (doi:10.1021/je500380x).

Test: mn = molality of the nth substance listed, in mol/kg
Settings: 100 kPa, Liquid; for electrical conductivity: Alternating current cell with electrodes; for viscosity: Falling or rolling sphere viscometry; for mass density: Vibrating tube method

CCC(=O)OCCN1CCNCC1 [2-(piperazin-1-yl)ethyl propionate] + CCO
Settings	electrical conductivity [S/m]	mass density [kg/m3]	viscosity [mPa·s]
293.15 K, m1 = 0.05	0.018	792.31	1.231
293.15 K, m1 = 0.1	0.0284	795.01	1.291
293.15 K, m1 = 0.1985	0.0443	800.36	1.369
293.15 K, m1 = 0.3005	0.0571	806.02	1.473
293.15 K, m1 = 0.4001	0.0671	811.4	1.577
293.15 K, m1 = 0.5007	0.0769	817.08	1.711
293.15 K, m1 = 0.5998	0.0851	822.5	1.845
293.15 K, m1 = 0.7002	0.092	828.2	2
293.15 K, m1 = 0.8	0.0988	833.89	2.198
293.15 K, m1 = 0.8957	0.1048	839.61	2.363
293.15 K, m1 = 1	0.1105	845.48	2.582
293.15 K, m1 = 1.198	0.119	857.06	3.081
293.15 K, m1 = 1.401	0.126	869.49	3.774
293.15 K, m1 = 1.602	0.13	881.43	4.697
293.15 K, m1 = 1.8	0.1314	893.69	5.93
293.15 K, m1 = 2.001	0.1308	906.93	7.934
293.15 K, m1 = 2.198	0.127	918.83	9.733
293.15 K, m1 = 2.397	0.121	931.94	12.86
293.15 K, m1 = 2.597	0.1137	945.08	18.8
293.15 K, m1 = 2.796	0.106	958.17	25.23
293.15 K, m1 = 3.006	0.0951	972.39	37.45
298.15 K, m1 = 0.05	0.0186	788.01	1.12
298.15 K, m1 = 0.1	0.0296	790.73	1.173
298.15 K, m1 = 0.1985	0.0465	796.08	1.241
298.15 K, m1 = 0.3005	0.06	801.71	1.333
298.15 K, m1 = 0.4001	0.071	807.14	1.424
298.15 K, m1 = 0.5007	0.0816	812.78	1.541
298.15 K, m1 = 0.5998	0.0904	818.26	1.658
298.15 K, m1 = 0.7002	0.0977	823.96	1.793
298.15 K, m1 = 0.8	0.106	829.67	1.967
298.15 K, m1 = 0.8957	0.1123	835.39	2.11
298.15 K, m1 = 1	0.119	841.3	2.298
298.15 K, m1 = 1.198	0.129	852.92	2.729
298.15 K, m1 = 1.401	0.137	865.42	3.319
298.15 K, m1 = 1.602	0.1415	877.35	4.106
298.15 K, m1 = 1.8	0.1443	889.66	5.146
298.15 K, m1 = 2.001	0.1447	902.95	6.811
298.15 K, m1 = 2.198	0.1423	914.88	8.295
298.15 K, m1 = 2.397	0.138	928.01	10.83
298.15 K, m1 = 2.597	0.1304	941.19	15.64
298.15 K, m1 = 2.796	0.1237	954.36	20.7
298.15 K, m1 = 3.006	0.1136	968.58	30.28
303.15 K, m1 = 0.05	0.0191	783.69	1.021
303.15 K, m1 = 0.1	0.0305	786.41	1.069
303.15 K, m1 = 0.1985	0.0483	791.76	1.2
303.15 K, m1 = 0.3005	0.0627	797.4	1.209
303.15 K, m1 = 0.4001	0.0745	802.85	1.289
303.15 K, m1 = 0.5007	0.0858	808.5	1.392
303.15 K, m1 = 0.5998	0.0954	813.99	1.495
303.15 K, m1 = 0.7002	0.1036	819.7	1.613
303.15 K, m1 = 0.8	0.1125	825.43	1.766
303.15 K, m1 = 0.8957	0.119	831.17	1.89
303.15 K, m1 = 1	0.127	837.09	2.054
303.15 K, m1 = 1.198	0.139	848.73	2.427
303.15 K, m1 = 1.401	0.149	861.28	2.935
303.15 K, m1 = 1.602	0.155	873.24	3.606
303.15 K, m1 = 1.8	0.16	885.6	4.489
303.15 K, m1 = 2.001	0.1614	898.93	5.886
303.15 K, m1 = 2.198	0.159	910.89	7.117
303.15 K, m1 = 2.397	0.155	924.07	9.203
303.15 K, m1 = 2.597	0.147	937.29	13.25
303.15 K, m1 = 2.796	0.14	950.5	17.19
303.15 K, m1 = 3.006	0.1307	964.74	24.65
308.15 K, m1 = 0.05	0.0194	–	0.934
308.15 K, m1 = 0.1	0.0313	–	0.976
308.15 K, m1 = 0.1985	0.0499	–	1.028
308.15 K, m1 = 0.3005	0.0652	–	1.1
308.15 K, m1 = 0.4001	0.0776	–	1.171
308.15 K, m1 = 0.5007	0.0899	–	1.261
308.15 K, m1 = 0.5998	0.1004	–	1.352
308.15 K, m1 = 0.7002	0.109	–	1.456
308.15 K, m1 = 0.8	0.119	–	1.59
308.15 K, m1 = 0.8957	0.126	–	1.698
308.15 K, m1 = 1	0.135	–	–
308.15 K, m1 = 1.198	0.148	–	–
308.15 K, m1 = 1.401	0.1609	–	–
308.15 K, m1 = 1.602	0.169	–	–
308.15 K, m1 = 1.8	0.1747	–	–
308.15 K, m1 = 2.001	0.178	–	–
308.15 K, m1 = 2.198	0.177	–	–
308.15 K, m1 = 2.397	0.173	–	–
308.15 K, m1 = 2.597	0.165	–	–
308.15 K, m1 = 2.796	0.158	–	–
308.15 K, m1 = 3.006	0.148	–	–
